In patent publication US20040171489A1, “Synergistic active compound combinations for controlling harmful plants” (priority 1998, published 2004):
Counter-ions that a name gives are not always drawn.

Key:
Sorghum verticilliflorum = assay: Example 13 field trial, 2- to 4-leaf stage: herbicidal effect; assay type: in vivo; conditions: 12.5 g of ai/ha; 17 days after application
Method: (§1) The herbicidal efficacy of the active compounds or active compound mixtures was scored visually using the treated plots in comparison to untreated control plots. The damage and development of all above-ground parts of the plants were recorded. Scoring was carried out using a percentage scale (100% effect=all plants killed; 50% effect=50% of the plants and the green parts of the plants killed; 0% effect=no noticeable effect=like control plot. The scores of in each case 4 plots were averaged.
(§2) If the observed activity values already exceed the formal sum of the values for the trials with the individual applications, they also exceed the expected value according to Colby which is calculated using the following formula and which is likewise considered to be an indication of synergism (cf. S. R. Colby; in Weeds 15 (1967) p. 20 to 22):
(§3) Crop plants were grown outdoors on plots under natural outdoor conditions, and seeds or rhizome pieces of typical harmful plants were laid out or the natural weed growth was utilized. Treatment with the compositions according to the invention was carried out after the harmful plants had emerged and the crop plants were, generally, at the 2- to 4-leaf stage; in some cases (as stated), application of individual active compounds or active compound combinations was carried out pre-emergence (cf. Section 1) or post-emergence (cf. Section 2) or as a sequential treatment partly pre-emergence and/or post-emergence. After the application, for example 2, 4, 6 and 8 weeks after the application, the effect of the preparations was scored visually by comparison with untreated controls (cf. scoring in Section 1). In the field trial as well, the compositions according to the invention have synergistic herbicidal activity against a broad spectrum of economically important weed grasses and broad-leaved weeds. […] Moreover, the effects in essential phases of the scoring period were above the expected values according to Colby, also indicating synergism. In contrast, the crop plants were, as a consequence of the treatments with the herbicidal compositions, damaged only to a small degree, if at all.

summer wheat = assay: Example 13 field trial, 2- to 4-leaf stage: crop damage; assay type: in vivo, Triticum aestivum; conditions: in vivo
Method: as §1, §2, §3

Lamium purpurea = assay: Example 12 field trial, 2- to 4-leaf stage: herbicidal effect; assay type: in vivo; conditions: 42 days after application
Method: as §1, §2, §3

winter wheat [1] = assay: Example 12 field trial, 2- to 4-leaf stage: crop damage; assay type: in vivo, Triticum aestivum
Method: as §1, §2, §3

Capsella bursa-pastoris [2] = assay: Example 11 field trial, 2- to 4-leaf stage: herbicidal effect; assay type: in vivo; conditions: 28 days after application
Method: as §1, §2, §3

winter wheat [3] = assay: Example 11 field trial, 2- to 4-leaf stage: crop damage; assay type: in vivo, Triticum aestivum; conditions: 28 days after application
Method: as §1, §2, §3

Galium aparine = assay: Example 10 pre-emergence application, fall: herbicidal effect; assay type: in vivo; conditions: 169 days after application
Excerpt: (§4) Seeds or rhizome pieces of monocotyledonous and dicotyledonous weed plants are placed in sandy loam soil in pots and covered with soil. The compositions, formulated in the form of concentrated aqueous solutions, wettable powders or emulsion concentrates, are then applied to the surface of the soil cover as aqueous solution, suspension or emulsion at an application rate of 600 to 800 l of water/ha (converted), in various dosages. After the treatment, the pots are placed in a greenhouse and kept under good growth conditions for the weeds. After the test plants have emerged, the damage to the plants or the negative effects on the emergence is scored visually after a test period of 3 to 4 weeks by comparison with untreated controls. As shown by the test results, the compositions according to the invention have good herbicidal pre-emergence activity against a broad spectrum of weed grasses and broad-leaved weeds.
as §1, §2, §3

winter wheat [4] = assay: Example 10 pre-emergence application, fall: crop damage; assay type: in vivo, Triticum aestivum
Excerpt: as §4, §1, §2, §3

winter barley [5] = assay: Example 1 field trial, 2-4 leaf stage: crop damage; assay type: in vivo, Hordeum vulgare; conditions: winter barley (Hordeum vulgare), in vivo, 28 days
Method: as §1, §2, §3

Papaver rhoeas = assay: Example 1 field trial, 2-4 leaf stage: herbicidal effect; assay type: in vivo; conditions: 1000 g of ai/ha; 28 days after application
Method: as §1, §2, §3

winter barley [6] = assay: Example 9 field trials, application 1-3 leaf stage broad-leaved weeds: crop damage; assay type: in vivo, Hordeum vulgare; conditions: winter barley (Hordeum vulgare), in vivo
Method: as §1, §2
as §3, with “In contrast, the crop plants were, as a consequence of the treatments with the herbicidal compositions, damaged only to a small degree, if at all.” left out

winter wheat [7] = assay: as above; assay type: in vivo, Triticum aestivum; conditions: winter wheat (Triticum aestivum), in vivo
Method: as §1, §2
as §3, with “In contrast, the crop plants were, as a consequence of the treatments with the herbicidal compositions, damaged only to a small degree, if at all.” left out

Alopecurus myosuroides = assay: Example 9 field trials, application 1-3 leaf stage broad-leaved weeds: herbicidal effect; assay type: in vivo; conditions: 2000 g of ai/ha; 120 to 160 days after application
Method: as §1, §2, §3

Capsella bursa-pastoris [8] = assay: as above; assay type: in vivo; conditions: 2000 g of ai/ha; 120 to 160 days after application
Method: as §1, §2, §3

Monochoria vaginalis = assay: Example 22 field trial, 2-leaf stage: herbicidal effect; assay type: in vivo; conditions: 250 g of ai/ha; 14 days after application
Method: as §1, §2, §3

Oryza sativa (rice) = assay: Example 22 field trial, 2-leaf stage: crop damage; assay type: in vivo; conditions: 250 g of ai/ha; 14 days after application
Method: as §1, §2, §3

Matricaria chamomilla = assay: Example 14 field trial, 2- to 4-leaf stage: herbicidal effect; assay type: in vivo; conditions: 28 days after application
Method: as §1, §2, §3

winter wheat [9] = assay: Example 8 field trial, 4-leaf stage: crop damage; assay type: in vivo, Triticum aestivum; conditions: 28 days after application
Method: as §1, §2
as §3, with “In contrast, the crop plants were, as a consequence of the treatments with the herbicidal compositions, damaged only to a small degree, if at all.” left out

Veronica hederofolia = assay: Example 8 field trial, 4-leaf stage: herbicidal effect; assay type: in vivo; conditions: 28 days after application
Method: as §1, §2
as §3, with “In contrast, the crop plants were, as a consequence of the treatments with the herbicidal compositions, damaged only to a small degree, if at all.” left out

Elusine indica = assay: Example 18 field trial, 3-leaf stage: herbicidal effect; assay type: in vivo; conditions: 31 days after application
Method: as §1, §2
as §3, with “In contrast, the crop plants were, as a consequence of the treatments with the herbicidal compositions, damaged only to a small degree, if at all.” left out

[10] = system: corn which is glufosinate-ammonium-resistant; assay: Example 18 field trial, 3-leaf stage: crop damage; assay type: in vivo, Corn (LL); conditions: 31 days after application
Method: The damage and development of all above-ground parts of the plants were recorded.
Crop plants were grown outdoors on plots under natural outdoor conditions, and seeds or rhizome pieces of typical harmful plants were laid out or the natural weed growth was utilized.

COC(=O)c1ccccc1S(=O)(=O)NC(=O)N(C)c1nc(C)nc(OC)n1 [(B2.1.1), tribenuron-methyl]
herbicidal effect, SORVE (Sorghum verticilliflorum): 0%
damage, TRZAS (summer wheat): 0%

CCOC(=O)/C(Cl)=C/c1cc(N2C(=O)C3=C(CCCC3)C2=O)ccc1Cl [(B2.6.8), cinidon-ethyl]
herbicidal effect, LAMPU (Lamium purpurea; 25 g of ai/ha): 60%
herbicidal effect, LAMPU (Lamium purpurea; 50 g of ai/ha): 60%
damage, TRZAW (winter wheat [1]; in vivo): 3%

COc1ncc(F)c2nc(S(=O)(=O)Nc3c(F)cccc3F)nn12 [(B2.5.2), florasulam]
herbicidal effect, LAMPU (Lamium purpurea; 3.7 g of ai/ha): 35%
herbicidal effect, LAMPU (Lamium purpurea; 7.5 g of ai/ha): 35%
herbicidal effect, LAMPU (Lamium purpurea; 15 g of ai/ha): 40%
damage, TRZAW (winter wheat [1]; 3.7 g of ai/ha, 42 days after application): 3%
damage, TRZAW (winter wheat [1]; 7.5 g of ai/ha, 42 days after application): 3%
damage, TRZAW (winter wheat [1]; 15 g of ai/ha, 42 days after application): 6%

O=C(Nc1ccc(F)cc1F)c1cccnc1Oc1cccc(C(F)(F)F)c1 [(B3.4.2), diflufenican, reference compound]
herbicidal effect, CAPPBP (Capsella bursa-pastoris [2]; 75 g of ai/ha): 45%
herbicidal effect, CAPPBP (Capsella bursa-pastoris [2]; 150 g of ai/ha): 67%
damage, TRZAW (winter wheat [3]; 75 g of ai/ha): 0%
damage, TRZAW (winter wheat [3]; 150 g of ai/ha): 0%

CNC1=C(c2cccc(C(F)(F)F)c2)C(=O)C(c2ccccc2)O1 (stereo not drawn) [(B3.4.4), flurtamone]
herbicidal effect, GALAP (Galium aparine; 250 g of ai/ha): 50%
damage, TRZAW (winter wheat [4]; 250 g of ai/ha, 169 days after application): 2%

CC(C)c1ccc(NC(=O)N(C)C)cc1 [(B1.1.1), isoproturon, reference compound]
damage, HORVW (winter barley [5]): 0%
herbicidal effect, PAPRH (Papaver rhoeas): 15%
damage, HORVW (winter barley [6]): 0%
damage, TRZAW (winter wheat [7]): 0%
herbicidal effect, ALOMY (Alopecurus myosuroides): 0%
herbicidal effect, CAPBP (Capsella bursa-pastoris [8]): 0%
herbicidal effect, GALAP (Galium aparine; 1000 g of ai/ha): 15%
damage, TRZAW (winter wheat [4]; winter wheat (Triticum aestivum), in vivo, 169 days): 0%

COP(=S)(OC)SCC(=O)N(c1ccc(Cl)cc1)C(C)(C)C [(B1.6.5), anilofos, reference compound]
herbicidal effect, MOOVA (Monochoria vaginalis): 95%
damage, ORYSA (Oryza sativa (rice)): 5%

N#Cc1cc(I)c(O)c(I)c1 [(B2.3.2), ioxynil]
herbicidal effect, MATCH (Matricaria chamomilla; 187 g of ai/ha): 30%
herbicidal effect, MATCH (Matricaria chamomilla; 375 g of ai/ha): 45%

COc1cc(Cl)cc(OCC(C)Nc2nc(N)nc(C(C)(C)F)n2)c1 (stereo not drawn) [(A5), 4-amino-6-(1-fluoro-1-methylethyl)-2-[2-(3-chloro-5-methoxyphenoxy)-1-methylethylamino]-1,3,5-triazine]
damage, TRZAW (winter wheat [9]; 25 g of ai/ha): 0%
damage, TRZAW (winter wheat [9]; 50 g of ai/ha): 0%
damage, TRZAW (winter wheat [9]; 100 g of ai/ha): 0%
herbicidal effect, VERHE (Veronica hederofolia; 25 g of ai/ha): 14%
herbicidal effect, VERHE (Veronica hederofolia; 50 g of ai/ha): 22%
herbicidal effect, VERHE (Veronica hederofolia; 100 g of ai/ha): 34%

CP(=O)(O)CCC(N)C(=O)O (stereo not drawn) [(B4.1.2), glufosinate monoammonium salt]
herbicidal effect, ELEIN (Elusine indica; 300 g of ai/ha): 55%
herbicidal effect, ELEIN (Elusine indica; 600 g of ai/ha): 78%
damage, Corn (LL) ([10]; 300 g of ai/ha): 0%
damage, Corn (LL) ([10]; 600 g of ai/ha): 0%
